Results reported in patent US20060115816A1, “Splice variant cannabinoid receptor (cb1b)” (priority 2002, published 2006).
Like-named read-outs stand apart in the source and are kept apart here.

Tests used:
[1] = molecular target: T1, hCB2 (Homo sapiens, UniProt P34972); assay: GTPγ[35S] binding assay, agonist properties on hCB2; format: biochemical
T1 construct: expressed in transfected cells

[2] = molecular target: T2, hCB1a (Homo sapiens, UniProt P21554); assay: biochemical; format: biochemical
T2 construct: expressed in transfected cells

[3] = molecular target: T3, hCB1b (Homo sapiens, UniProt P21554); assay: FLIPR intracellular calcium mobilization assay (Fluo-3), HEK-293S cells expressing human CB1b receptor and Gα16; format: cell-based
T3 construct: expressed in transfected cells
Method: In order to assess the functionality of the human CB1b receptor variant, a functional assay was performed with FLIPR (Fluorescent Imaging Plate Reader, Molecular Devices) using the fluorescent calcium indicator Fluo-3 (Molecular Probes) on a 96 well platform. […] On the day of the experiment, the cells were initially washed once with Hank's buffer (pH7.4) containing 20 mM Hepes and 0.1% BSA (HBSS buffer) and subsequently loaded with fluorescent solution (HBSS buffer, 4 μM Fluor-3 and 0.04% pluronic acid). The cells were incubated at 37° C. for 1 hour in a humidified chamber. Following the incubation step, cells were washed five times with HBSS buffer. […] A range of other natural and synthetic cannabinoid ligands were also tested.

[4] = molecular target: T4, un-spliced human CB 1 receptor (Homo sapiens, UniProt P21554); assay: FLIPR intracellular calcium mobilization assay (Fluo-3), HEK-293S cells expressing un-spliced hCB1 receptor and Gα16; format: cell-based
T4 construct: expressed in transfected cells

[5] = molecular target: T3, hCB1b; assay: biochemical; format: biochemical
[6] = molecular target: T5, hCB1 (Homo sapiens, UniProt P21554); assay: biochemical; format: biochemical
T5 construct: expressed in transfected cells

[7] = agonist, GTPγ[35S] binding assay, read-out: EC50 hCB1a
[8] = agonist, GTPγ[35S] binding assay, read-out: EC50 hCB1b
[9] = agonist, GTPγ[35S] binding assay, read-out: EC50 hCB1

T2 sequence (P21554 1-411 isoform P21554-2): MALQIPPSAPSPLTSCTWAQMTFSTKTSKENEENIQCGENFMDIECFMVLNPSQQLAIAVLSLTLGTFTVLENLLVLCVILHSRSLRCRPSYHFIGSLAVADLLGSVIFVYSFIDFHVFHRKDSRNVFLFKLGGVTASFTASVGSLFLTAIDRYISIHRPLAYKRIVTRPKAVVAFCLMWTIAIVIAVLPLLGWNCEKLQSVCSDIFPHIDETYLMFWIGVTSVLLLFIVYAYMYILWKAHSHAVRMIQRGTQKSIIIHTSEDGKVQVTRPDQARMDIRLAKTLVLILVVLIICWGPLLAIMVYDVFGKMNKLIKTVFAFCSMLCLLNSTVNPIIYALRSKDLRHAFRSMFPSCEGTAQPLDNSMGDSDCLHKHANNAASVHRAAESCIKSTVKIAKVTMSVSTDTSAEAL
T5 sequence (P21554 whole entry): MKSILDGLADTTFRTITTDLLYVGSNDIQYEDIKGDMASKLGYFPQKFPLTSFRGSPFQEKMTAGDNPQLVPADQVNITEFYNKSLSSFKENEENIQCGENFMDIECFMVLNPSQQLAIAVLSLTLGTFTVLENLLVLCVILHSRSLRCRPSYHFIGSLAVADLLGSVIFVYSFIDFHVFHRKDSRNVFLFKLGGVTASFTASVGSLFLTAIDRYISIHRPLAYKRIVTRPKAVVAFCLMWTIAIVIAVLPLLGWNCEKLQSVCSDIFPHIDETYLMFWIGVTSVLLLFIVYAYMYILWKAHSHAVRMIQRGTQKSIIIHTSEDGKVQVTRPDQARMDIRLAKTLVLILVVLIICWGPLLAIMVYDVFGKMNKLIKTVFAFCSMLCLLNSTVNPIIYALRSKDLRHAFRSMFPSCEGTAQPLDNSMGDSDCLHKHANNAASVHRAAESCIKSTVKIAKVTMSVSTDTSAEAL
T3 sequence (P21554 1-439 isoform P21554-3): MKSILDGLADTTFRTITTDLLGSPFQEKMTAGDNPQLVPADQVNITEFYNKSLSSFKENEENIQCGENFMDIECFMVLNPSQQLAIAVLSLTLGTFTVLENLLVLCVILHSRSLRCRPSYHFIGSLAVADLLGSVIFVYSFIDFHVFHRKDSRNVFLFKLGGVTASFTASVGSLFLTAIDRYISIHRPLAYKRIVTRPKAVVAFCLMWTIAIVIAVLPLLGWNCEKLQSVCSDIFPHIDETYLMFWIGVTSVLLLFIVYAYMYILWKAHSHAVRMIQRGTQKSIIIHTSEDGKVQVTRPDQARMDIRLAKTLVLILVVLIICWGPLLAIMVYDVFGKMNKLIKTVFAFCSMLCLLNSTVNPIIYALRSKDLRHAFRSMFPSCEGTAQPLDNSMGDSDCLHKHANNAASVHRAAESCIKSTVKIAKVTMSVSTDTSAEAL
T1 sequence (P34972 whole entry): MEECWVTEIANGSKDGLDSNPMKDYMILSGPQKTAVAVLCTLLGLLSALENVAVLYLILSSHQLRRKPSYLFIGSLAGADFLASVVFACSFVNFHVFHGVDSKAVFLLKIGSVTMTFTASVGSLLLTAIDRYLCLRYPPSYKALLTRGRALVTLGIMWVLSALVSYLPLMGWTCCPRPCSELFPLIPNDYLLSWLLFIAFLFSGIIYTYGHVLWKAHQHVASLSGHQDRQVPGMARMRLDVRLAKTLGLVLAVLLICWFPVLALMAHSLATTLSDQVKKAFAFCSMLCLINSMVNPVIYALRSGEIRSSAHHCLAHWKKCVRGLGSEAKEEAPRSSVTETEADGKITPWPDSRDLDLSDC
T4 sequence (P21554 whole entry, canonical isoform): as the sequence (P21554 whole entry) above

| SMILES | EC50 [1] | EC50 [2, 7] | EC50 [5, 8] | EC50 [6, 9] | further results |
| --- | --- | --- | --- | --- | --- |
| CCCCC/C=C\C/C=C\C/C=C\C/C=C\CCCC(=O)OC(CO)CO [2-arachodonylglycerol] | 1690 nM |  |  |  |  |
| CCCCCCC(C)(C)c1cc(O)c2c(c1)OC(C)(C)[C@@H]1CC=C(CO)C[C@@H]21 [Hu210] |  |  |  |  | EC50 [2]: 0.2 nM; EC50 [3]: 0.15 nM; EC50 [4]: 0.06 nM; EC50 [5]: 0.15 nM; EC50 [6]: 0.06 nM |
| CCCCC/C=C\C/C=C\C/C=C\C/C=C\CCCC(=O)OCCN [Virodhamine] | 1310 nM | > 1000 nM | > 1000 nM | 934 nM |  |
| CCCCC/C=C\C/C=C\C/C=C\C/C=C\CCCCOC(CO)CO [Noladin Ether] | > 1000 nM |  |  |  | EC50 ([2]; read-out: EC50 hCB1a): > 1000 nM; EC50 ([5]; read-out: EC50 hCB1b): > 1000 nM; EC50 ([6]; read-out: EC50 hCB1): 5.1 nM |
| CCCCCCCCCCCCCCCC(=O)NCCO [Palmitoylethanolamine] | 349 nM | > 1000 nM | > 1000 nM | > 1000 nM |  |
| CCCC(C)(C)c1ccc2c(c1)OC(C)(C)[C@@H]1CC=C(C)C[C@@H]21 [JWH133] | 1.8 nM | > 1000 nM | > 1000 nM | > 1000 nM |  |
